The NIST ThermoML archive (doi:10.1021/je100260z)
Several values for one entry are separate records, joined by “and”; a condition that tells them apart may be missing. Equal entries are not always repeated.

Conditions: Crystal, Torsion effusion method

[F][Pb]([F])([F])[F] [lead(IV) fluoride]
Conditions	vapor or sublimation pressure [kPa]
603 K	0.000566
612 K	0.000677
622 K	0.000844
628 K	0.000844
631 K	0.00097
634 K	0.000942
635 K	0.001062
638 K	0.001116
639 K	0.001116
644 K	0.001259
645 K	0.001139
647 K	0.001209
648 K	0.001336
653 K	0.001297
654 K	0.001492
657 K	0.0016
658 K	0.001448
663 K	0.001584
664 K	0.001751
666 K	0.00184
668 K	0.001751
669 K	0.001896
670 K	0.001974
673 K	0.001878
675 K	0.002096
676 K	0.001974
682 K	0.00234
684 K	0.002203

[F][Pb][F] [lead(II) fluoride]
Conditions	vapor or sublimation pressure
793 K	0.000361 kPa
798 K	0.000411 kPa
803 K	0.000411 kPa
808 K	0.000454 kPa
810 K	0.000454 kPa
811 K	0.000487 kPa
816 K	0.000522 kPa
818 K	0.000554 kPa
820 K	0.000554 kPa
824 K	0.000613 kPa
825 K	0.000613 kPa
827 K	0.000613 kPa
830 K	0.000638 kPa
833 K	0.000664 kPa
835 K	0.000705 kPa
837 K	0.000748 kPa
840 K	0.000771 kPa
841 K	0.000748 kPa
845 K	0.000861 kPa and 0.000827 kPa
846 K	0.000827 kPa
852 K	0.000951 kPa
854 K	0.00098 kPa
856 K	0.00101 kPa
858 K	0.00098 kPa
859 K	0.00098 kPa
863 K	0.001116 kPa
867 K	0.001185 kPa and 0.001116 kPa
868 K	0.001234 kPa
873 K	0.001323 kPa and 0.001284 kPa
875 K	0.001323 kPa
876 K	0.001284 kPa
878 K	0.001391 kPa
882 K	0.001507 kPa
883 K	0.001477 kPa
884 K	0.001419 kPa
886 K	0.001507 kPa
890 K	0.001632 kPa
891 K	0.001682 kPa
895 K	0.001716 kPa
899 K	0.00184 kPa
900 K	0.001896 kPa
903 K	0.001916 kPa
904 K	0.001916 kPa
905 K	0.001896 kPa
910 K	0.002138 kPa and 0.002117 kPa
912 K	0.002075 kPa
913 K	0.002096 kPa
914 K	0.002203 kPa
919 K	0.002387 kPa
921 K	0.002411 kPa
923 K	0.002387 kPa
928 K	0.002638 kPa
931 K	0.002664 kPa
933 K	0.002746 kPa
934 K	0.002801 kPa
948 K	0.003456 kPa
951 K	0.003669 kPa
